Data: US6479666B2, “Phenyl-keto-imidazolidine thioamide derivatives” (Hoffman-La Roche Inc., priority 2001, dated 2002)
Where a name gives a salt, the structure may show the parent alone.

Columns and labels:
[1] = tested on: cynomolgus monkeys (Macaca fascicularis) challenged with Ascaris suum antigen; experiment: Acute airway inflammation in the atopic primate; type: in vivo; details: p.o., 2 hours prior to antigen challenge; lavage at 24 hour after A. suum antigen challenge
Protocol: Example 4. Acute airway inflammation in the atopic primate.
Airway inflammation in the monkey was determined using a modification of the protocol described by Turner et al. (Turner et al., 1994). Adult male cynomolgus monkeys (Macaca fascicularis, Hazelton Labs, Denver, Pa.) weighing between 3.6-5.8 kg were used in these studies.
On the day of each experiment the animals were anesthetized with ketamine hydrochloride, 12 mg/kg, and xylazine, 0.5 mg/kg, intubated with a cuffed endotracheal tube (3 mm, Mallinckrodt Medical, St. Louis, Mo.), then seated in an upright position in a specially designed Plexiglass chair (Plas-Labs, Lansing, Mich.). The endotracheal tube was connected to a heated Fleisch pneumotachograph. Airflow was measured via a Validyn differential pressure transducer (DP 45-24) that was attached to the pneumotachograph. Transpulmonary pressure was measured via a second Validyne transducer (DP 45-24) connected between a sidearm of the tracheal cannula and a 18-gauge intrapleural needle inserted in the intercostal space located below the left nipple. […]
Airway inflammation was induced by exposing the animal to an aerosol of A. Suum extract for 60 sec. […] Airway inflammation was assessed by inserting a pediatric bronchoscope into the airway lumen down to about the 4 or 5th generation bronchi and gently lavaging with 3 X 2 ml aliquots of sterile Hanks Balanced Salt Solution. […]

[2] = molecular target: T1, VLA-4 (α4β1 integrin) binding to immobilized VCAM-1 (Homo sapiens, UniProt P05556+P13612); experiment: VLA-4/VCAM-1 Screening Assay (solid-phase dual antibody ELISA); details: Ramos cell-derived VLA-4, recombinant human VCAM-1 coated plates
T1 construct: followed by 10 μl of Ramos cell-derived VLA-4; endogenous in cells; host or cells: Ramos cells (VLA-4 prepared from them)
Protocol: 1. VLA-4/VCAM-1 Screening Assay
VLA-4 antagonist activity, defined as ability to compete for binding to immobilized VCAM-1, was quantitated using a solid-phase, dual antibody ELISA. VLA-4 (α4β1 integrin) bound to VCAM-1 is detected by a complex of anti-integrin β1 antibody: HRP-conjugated anti-mouse IgG: chromogenic substrate (K-Blue). Initially, this entailed coating 96 well plates (Nunc Maxisorp) with recombinant human VCAM-1 (0.4 μg in 100 μl PBS), sealing each plate and then allowing the plates to stand at 4° C. for ^˜18 hr. […] On the day of assay, all plates are washed twice with VCAM Assay Buffer (200 μl/well of 50 mM Tris-HCl, 100 mM NaCl, 1 mM MnCl2, 0.05% Tween 20; pH 7.4). Test compounds are dissolved in 100% DMSO and then diluted 1:20 in VCAM Assay Buffer supplemented with 1 mg/mL BSA (i.e., final DMSO=5%). A series of 1:4 dilutions are performed to achieve a concentration range of 0.005 nM−1.563 μM for each test compound. 100 μl per well of each dilution is added to the VCAM-coated plates, followed by 10 μl of Ramos cell-derived VLA-4. These plates are sequentially mixed on a platform shaker for 1 min, incubated for 2 hr at 37° C., and then washed four times with 200 μl/well VCAM Assay Buffer. 100 μl of mouse anti-human integrin β1 antibody is added to each well (0.6 μg/mL in VCAM Assay Buffer+1 mg/mL BSA) and allowed to incubate for 1 hr at 37° C. At the conclusion of this incubation period, all plates are washed four times with VCAM Assay Buffer (200 μl/well). A corresponding second antibody, HRP-conjugated goat anti-mouse IgG (100 μl per well @ 1:800 dilution in VCAM Assay Buffer+1 mg/mL BSA), is then added to each well, followed by a 1 hr incubation at room temperature and concluded by three washes (200 μl/well) with VCAM Assay Buffer. Color development is initiated by addition of 100 μl K-Blue per well (15 min incubation, room temp) and terminated by addition of 100 μl Red Stop Buffer per well. All plates are then read in a UV/V is spectrophotometer at 650 nM. Results are calculated as % inhibition of total binding (i.e., VLA-4+VCAM-1 in the absence of test compound).

[3] = molecular target: T2, Ramos cells bearing cell-surface VLA-4 (α4β1 integrin) binding to VCAM-1 (Homo sapiens, UniProt P05556+P13612); experiment: Ramos (VLA-4) / VCAM-1 Cell-Based Screening Assay (cell adhesion); details: Calcein-AM labelled Ramos cells, VCAM-1 coated plates
T2 construct: Ramos cells bearing cell-surface VLA-4; endogenous in cells; host or cells: Ramos cells (VLA-4); VCAM-1 made in CHO cells
Protocol: 2. Ramos (VLA-4) / VCAM-1 Cell-Based Screening Assay Protocol
Soluble recombinant human VCAM-1 (mixture of 5- and 7-Ig domain) was purified from CHO cell culture media by immunoaffinity chromatography and maintained in a solution containing 0.1 M Tris-glycine (pH 7.5), 0.1 M NaCl, 5 mM EDTA, 1 mM PMSF, […] NaN3 and 10 μg/mL leupeptin. Calcein-AM was purchased from Molecular Probes Inc.
VLA-4 (α4β1 integrin) antagonist activity, defined as ability to compete with cell-surface VLA-4 for binding to immobilized VCAM-1, was quantitated using a Ramos-VCAM-1 cell adhesion assay. Ramos cells bearing cell-surface VLA-4, were labeled with a fluorescent dye (Calcein-AM) and allowed to bind VCAM-1 in the presence or absence of test compounds. A reduction in fluorescence intensity associated with adherent cells (% inhibition) reflected competitive inhibition of VLA-4 mediated cell adhesion by the test compound. Initially, this entailed coating 96 well plates (Nunc Maxisorp) with recombinant human VCAM-1 (100 ng in 100 μl PBS), sealing each plate and allowing the plates to stand at 4° C. for ^˜18 hr. The VCAM-coated plates were subsequently washed twice with 0.05% Tween-20 in PBS, and then blocked for 1 hr (room temperature) with 200 μl of Blocking Buffer (1% BSA/0.02% thimerosal) to reduce non-specific binding. Following the incubation with Blocking Buffer, plates were inverted, blotted and the remaining buffer aspirated. Each plate was then washed with 300 μl PBS, inverted and the remaining PBS aspirated.
Test compounds were dissolved in 100% DMSO and then diluted 1:25 in VCAM Cell Adhesion Assay Buffer (4 mM CaCl2, 4 mM MgCl2 in 50 mM TRIS-HCl, pH 7.5) (final DMSO=4%). A series of eight 1:4 dilutions were performed for each compound (general concentration range of 1 nM-12,500 nM). 100 μl/well of each dilution was added to the VCAM-coated plates, followed by 100 μl of Ramos cells (200,000 cells/well in 1% BSA/PBS). Plates containing test compounds and Ramos cells were allowed to incubate for 45 min at room temperature, after which 165 μl/well PBS was added. Plates were inverted to remove non-adherent cells, blotted and 300 μl/well PBS added. Plates were again inverted, blotted and the remaining buffer gently aspirated. 100 μl Lysis Buffer (0.1% SDS in 50 mM TRIS-HCl, pH 8.5) was added to each well and agitated for 2 min on a rotary shaking platform. The plates were then read for fluorescence intensity on a Cytofluor 2300 (Millipore) fluorescence measurement system (excitation=485 nm, emission=530 nm).

T1 sequence (P13612 34-1032): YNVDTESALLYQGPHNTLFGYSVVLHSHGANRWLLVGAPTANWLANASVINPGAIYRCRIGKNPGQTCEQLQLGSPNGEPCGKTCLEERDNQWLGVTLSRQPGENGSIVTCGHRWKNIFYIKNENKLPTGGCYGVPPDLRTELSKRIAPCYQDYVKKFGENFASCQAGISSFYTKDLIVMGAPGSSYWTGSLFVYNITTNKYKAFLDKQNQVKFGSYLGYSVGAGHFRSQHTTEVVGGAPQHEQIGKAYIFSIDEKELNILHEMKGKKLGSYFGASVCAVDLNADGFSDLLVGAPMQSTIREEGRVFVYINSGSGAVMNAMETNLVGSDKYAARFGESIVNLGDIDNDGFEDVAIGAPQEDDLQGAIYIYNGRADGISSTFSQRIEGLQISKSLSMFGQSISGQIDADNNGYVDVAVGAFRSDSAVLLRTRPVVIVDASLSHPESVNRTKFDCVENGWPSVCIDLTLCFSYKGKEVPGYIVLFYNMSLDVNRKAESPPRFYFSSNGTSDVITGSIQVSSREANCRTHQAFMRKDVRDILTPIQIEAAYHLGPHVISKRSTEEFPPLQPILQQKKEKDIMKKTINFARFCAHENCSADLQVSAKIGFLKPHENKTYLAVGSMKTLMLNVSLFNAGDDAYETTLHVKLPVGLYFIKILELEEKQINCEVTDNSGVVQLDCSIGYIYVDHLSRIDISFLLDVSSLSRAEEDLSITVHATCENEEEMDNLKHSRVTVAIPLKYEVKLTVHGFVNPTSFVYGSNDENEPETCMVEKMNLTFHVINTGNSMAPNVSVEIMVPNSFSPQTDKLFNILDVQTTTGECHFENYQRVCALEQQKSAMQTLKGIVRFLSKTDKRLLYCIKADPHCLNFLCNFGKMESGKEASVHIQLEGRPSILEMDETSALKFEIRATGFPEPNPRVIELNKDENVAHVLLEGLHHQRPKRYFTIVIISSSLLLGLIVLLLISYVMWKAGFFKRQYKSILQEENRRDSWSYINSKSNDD
T1 sequence (P05556 21-798): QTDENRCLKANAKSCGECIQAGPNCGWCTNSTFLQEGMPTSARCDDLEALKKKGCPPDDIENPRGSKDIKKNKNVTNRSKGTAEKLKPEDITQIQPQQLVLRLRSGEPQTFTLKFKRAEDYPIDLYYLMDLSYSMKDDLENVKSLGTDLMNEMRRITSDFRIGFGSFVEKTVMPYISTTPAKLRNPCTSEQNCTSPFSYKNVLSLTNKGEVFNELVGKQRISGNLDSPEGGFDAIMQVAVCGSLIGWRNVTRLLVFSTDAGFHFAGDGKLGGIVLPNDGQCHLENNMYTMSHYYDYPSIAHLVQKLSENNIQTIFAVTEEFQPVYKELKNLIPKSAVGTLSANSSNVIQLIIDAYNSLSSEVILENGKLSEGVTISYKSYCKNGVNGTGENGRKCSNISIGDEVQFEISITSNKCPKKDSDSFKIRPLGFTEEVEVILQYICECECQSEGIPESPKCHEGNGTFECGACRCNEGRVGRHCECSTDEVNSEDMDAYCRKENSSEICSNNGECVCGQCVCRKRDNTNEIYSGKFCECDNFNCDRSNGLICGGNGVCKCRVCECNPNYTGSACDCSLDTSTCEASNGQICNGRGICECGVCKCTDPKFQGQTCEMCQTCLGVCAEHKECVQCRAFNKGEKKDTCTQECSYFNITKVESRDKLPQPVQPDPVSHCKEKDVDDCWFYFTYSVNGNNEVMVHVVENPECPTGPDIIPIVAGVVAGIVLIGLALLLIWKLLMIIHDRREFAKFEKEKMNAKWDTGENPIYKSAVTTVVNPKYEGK
T2 sequence (P13612 34-1032): as the sequence (P13612 34-1032) above
T2 sequence (P05556 21-798): as the sequence (P05556 21-798) above

Row | IC50 [2] | IC50 [3] | melting point | Structure (SMILES) | number and percent of inflammatory cells present in the lavage fluid relative to vehicle treated control animals [1]
1 | 4 nM | 0.0665 µM | – | COCCC1(C(=S)N[C@@H](Cc2ccc(NC(=O)c3c(Cl)cccc3Cl)cc2)C(=O)O)CCCC1 [Example 3, 4-[[(2,6-dichlorophenyl)carbonyl]amino]-N-[[1-(2-methoxy-ethyl)cyclopentyl]thioxomethyl]-L-phenylalanine] | –
2 | 1.5 nM | 0.033 µM | – | CC(=O)NCCC1(C(=S)N[C@@H](Cc2ccc(NC(=O)c3c(Cl)cccc3Cl)cc2)C(=O)O)CCCC1 [Example 10, N-[[1-[2-(acetylamino)ethyl]cyclopentyl]thioxomethyl]-4-[[(2,6-dichlorophenyl)carbonyl]amino]-L-phenylalanine] | –
3 | 5.6 nM | 0.0425 µM | – | CNC(=O)NCCC1(C(=S)N[C@@H](Cc2ccc(NC(=O)c3c(Cl)cccc3Cl)cc2)C(=O)O)CCCC1 [Example 11] | –
4 | 0.47 nM | 0.06 µM | – | Cc1cccc(Cl)c1C(=S)N[C@@H](Cc1ccc(NC(=O)c2c(Cl)cccc2Cl)cc1)C(=O)O [Example 18, 4-[[(2,6-dichlorophenyl)carbonyl]amino]-N-[(2-chloro-6-methylphenyl)thioxomethyl]-L-phenylalanine] | –
5 | 6 nM | 0.101 µM | – | CCc1cccc(C)c1C(=S)N[C@@H](Cc1ccc(NC(=O)c2c(Cl)cccc2Cl)cc1)C(=O)O [Example 25, 4-[[(2,6-dichlorophenyl)carbonyl]amino]-N-[(2-ethyl-6-methylphenyl)thioxomethyl]-L-phenylalanine] | –
6 | – | 0.03 µM | 200 to 202 °C | CS(=O)(=O)CCCCC1(C(=S)N[C@@H](Cc2ccc(NC(=O)c3c(Cl)cccc3Cl)cc2)C(=O)O)CCCC1 [Example 50, 4-[[(2,6-dichlorophenyl)carbonyl]amino]-N-[[1-[4-(methylsulfonyl)butyl]cyclopentyl]thioxomethyl]-L-phenylalanine] | –
7 | – | 0.148 µM | – | Cc1ccnc(C)c1C(=O)Nc1ccc(C[C@H](NC(=S)C2(CCCCS(C)(=O)=O)CCCC2)C(=O)O)cc1 [Example 53, 4-[[(2,4-dimethylpyridin-3-yl)carbonyl]amino]-N-[[1-[4-(methylsulfonyl)butyl]-cyclopentyllthioxomethyl]-L-phenylalaninetrifluoroacetic acid salt] | –
8 | – | 0.008 µM | – | CS(=O)(=O)CCCCC1(C(=S)N[C@@H](Cc2ccc(NC(=O)c3c(Cl)cccc3Cl)cc2)C(=O)O)CCC1 [Example 62, 4-[[(2,6-dichlorophenyl)carbonyl]amino]-N-[[1-[4-(methylsulfonyl)-butyl]cyclobutyl]thioxomethyl]-L-phenylalanine] | –
9 | – | 0.341 µM | – | CS(=O)(=O)CCCC1(C(=S)N[C@@H](Cc2ccc(NC(=O)c3c(Cl)cccc3Cl)cc2)C(=O)O)CCC1 [Example 78, 4-[[(2,6-dichlorophenyl)carbonyl]amino]-N-[[1-[3-(methylsulfonyl)propyl]cyclobutyl]thioxomethyl]-L-phenylalanine] | –

The next lines start with the molecule.

Row | Structure (SMILES) | IC50 [2] | IC50 [3] | melting point | number and percent of inflammatory cells present in the lavage fluid relative to vehicle treated control animals [1]
10 | COCCC1(C(=S)N[C@@H](Cc2ccc([N+](=O)[O-])cc2)C(=O)OC)CCCC1 [Example 1, N-[[1-(2-methoxyethyl)cyclopentyl]thioxomethyl]-4-nitro-L-phenylalanine methyl ester] | – | – | – | significant decrease
11 | CCc1cccc(C)c1C(=S)N[C@@H](Cc1ccc(N2C(=O)[C@@H](Cc3cccnc3)N(C(C)=O)[C@@H]2c2ccccc2)cc1)C(=O)O [Example 29, 4-[(2S,4R)-3-acetyl-5-oxo-2-phenyl-4-[(pyridin-3-yl)methyl]imidazolidin-1-yl]-N-[(2-ethyl-6-methylphenyl)thioxomethyl]-L-phenylalanine] | – | 0.22 µM | – | –
12 | O=C(Nc1ccc(C[C@H](NC(=S)c2ccccc2F)C(=O)O)cc1)c1c(Cl)cccc1Cl [Example 34, 4-[[(2,6-dichlorophenyl)carbonyl]amino]-N-[(2-fluorophenyl)thioxomethyl]-L-phenylalanine] | – | 4.18 µM | – | –
13 | O=C(Nc1ccc(C[C@H](NC(=S)c2ccccc2C(F)(F)F)C(=O)O)cc1)c1c(Cl)cccc1Cl [Example 39, 4-[[(2,6-dichlorophenyl)carbonyl]amino]-N-[[2-(trifluoromethyl)phenyl]thioxomethyl]-L-phenylalanine] | – | 0.784 µM | – | –
14 | CSCCCC1(C(=S)N[C@@H](Cc2ccc(NC(=O)c3c(Cl)cccc3Cl)cc2)C(=O)O)CCC1 [Example 71, 4-[[(2,6-dichlorophenyl)carbonyl]amino]-N-[[1-[3-(methylthio)propyl]cyclobutyl]-thioxomethyl]-L-phenylalanine] | – | 0.926 µM | 186 to 188 °C | –
15 | Cc1cc(C(F)(F)F)c(C(=O)Nc2ccc(C[C@H](NC(=S)C3(CCCCS(C)(=O)=O)CCC3)C(=O)O)cc2)c(C)n1 [Example 84] | – | 0.0055 µM | – | –
